{
  "source": "patent US20260098027A1",
  "about": "“PHARMACEUTICALLY ACCEPTABLE SALT AND CRYSTAL FORM OF TETRAHYDRONAPHTHALENE DERIVATIVE, AND PREPARATION METHOD” (JIANGSU HENGRUI PHARMACEUTICALS CO., LTD., priority 2022, published 2026)",
  "key": {"[1]": {"tested_on": "MCF7 cells", "test": "Inhibitory effect on MCF7 cell proliferation (CellTiter-Glo)", "assay_type": "cell-based", "conditions": "Homo sapiens, 144 h, 6 days incubation, luminescence cell viability readout", "procedure": "MCF7 cells (TCHu74, National Collection of Authenticated Cell Cultures) were cultured in an MEM (GE Healthcare, SH30024.01) complete culture medium containing 10% fetal bovine serum. On day 1 of the experiment, MCF7 cells were seeded into a 96-well plate at a density of 3,000 cells/well using an MEM culture medium containing 2% fetal bovine serum, with each well containing 135 μL of cell suspension. The plate was incubated overnight in a 37° C., 5% CO2 cell incubator. The next day, the test compound, at different concentrations in the culture medium, was added at 15 μL/well. The final concentrations of the compound were 9 concentration points obtained by 4-fold serial dilution from 1000 nM. A blank control containing 0.5% DMSO was set up. The plate was incubated in a 37° C., 5% CO2 cell incubator for 6 days. On day 8, the 96-well cell culture plate was taken out, and CellTiter-Glo® Luminescent Cell Viability Assay (Promega, G7573) was added at 75 µL/well. After the plate was left at room temperature for 10 min, luminescence signal values were measured using a multilabel microplate reader (PerkinElmer, VICTOR 3)."}, "[2]": {"tested_on": "MCF-7 (Y537S) human breast cancer cells xenograft tumors", "test": "Efficacy against MCF-7 (Y537S) xenograft tumors in BEIGE SCID mice", "assay_type": "in vivo", "conditions": "for Mean tumor volume D0: D0 (day of grouping, before dosing)", "procedure": "To evaluate the inhibitory effect of compound I on the growth of xenograft tumors of MCF-7 (Y537S) human breast cancer cells in BEIGE SCID mice.\nCompound I. A 2% Tween 80+98% PEG-400 solution was used.\nTest animals: female BEIGE SCID mice, purchased from Beijing Vital River Laboratory Animal Technology Co., Ltd. (certificate No. SCXK (Beijing) 2016-0006), weighing about 19 g on purchase.\nHousing conditions: 5 animals/cage, a 12/12-hour light/dark cycle, a constant temperature of 23±1° C. with humidity at 50 to 60%, ad libitum access to food and water.\nAfter acclimatization, BEIGE SCID mice were grouped as follows:\nMCF-7 (Y537S) cells in the logarithmic growth phase were subcutaneously inoculated into the right flank of female BEIGE SCID mice at 1.0×10^7/mouse/200 μL (containing 100 μL of matrigel). After 18 days, when the tumor volume of tumor-bearing mice reached about 170 mm^3, the mice were randomly divided into 4 groups of 8 according to tumor volume and body weight: a vehicle control group, a compound I 5 mpk group, a compound I 15 mpk group, and a compound I 45 mpk group. The day of grouping was set as Do, and intragastric administration was started and performed once a day for 28 days. The 28th day post-dose was set as D28 (Table 1). The tumor volume of tumor-bearing mice was measured with a vernier caliper twice a week.\nAll data were plotted and statistically analyzed using Excel and GraphPad Prism 8 software.\nThe calculation formula for tumor volume (V) was: V=½×a×b2, where a and b represent length and width, respectively.\nRelative tumor proliferation rate T/C (%)=(T−T0)/(C−C0)×100(%), where T and C represent the tumor volumes of the treatment groups and the control group at the end of the experiment; T0 and C0 represent the tumor volumes at the beginning of the experiment.\nTumor growth inhibition rate TGI (%)=1−T/C (%). If TGI (%) exceeds 100%, its specific value will not be shown; instead, it will be represented as >100%. Tumor regression (%)=[(T0−T)/T0]×100(%)."}, "[3]": {"test": "DVS (dynamic vapor sorption) hygroscopicity test", "assay_type": "physicochemical", "procedure": "DVS refers to dynamic vapor sorption: Surface Measurement Systems instrinsic was adopted; the humidity started at 50%, the humidity range of the investigation was 0%-95%, and the humidity was increased in increments of 10%; the criterion was that each gradient mass change dM/dT is ≤0.002%, TMAX 360 min, two cycles."}, "[4]": {"test": "Influencing factor stability (light, high temperature, high humidity)", "assay_type": "physicochemical", "procedure": "Samples of hydrochloride crystal form I were spread out in open vessels and subjected to 1-month stability tests under light exposure (4500 Lux), high temperature (40° C. and 60° C.), and high humidity (RH 75% and RH 92.5%) conditions."}, "[5]": {"test": "Long-term/accelerated stability", "assay_type": "physicochemical", "procedure": "Hydrochloride crystal form I was left to stand under 25° C./60% RH and 40° C./75% RH conditions to test its stability."}},
  "note": "Counter-ions that a name gives are not always drawn.",
  "data": [
    {"smiles": "CC(C)C[C@H]1CCc2cc(O)ccc2[C@H]1c1ccc(N2CCC(CN3CCN(c4ccc5c(c4)CN([C@H]4CCC(=O)NC4=O)C5=O)CC3)CC2)cc1", "note": "[Compound I, (S)-3-(5-(4-((1-(4-((1R,2R)-6-hydroxy-2-isobutyl-1,2,3,4-tetrahydronaphthalen-1-yl)phenyl)piperidin-4-yl)methyl)piperazin-1-yl)-1-oxoisoindolin-2-yl)piperidine-2,6-dione]", "values": [
      {"measurement": "IC50", "setting": "[1]", "value": 0.59, "unit": "nM"},
      {"measurement": "Number of remaining animals/group", "setting": "[2]; 5 mpk i.g. qd/28 d", "value": "8/8"},
      {"measurement": "Mean tumor volume D0", "setting": "[2]; 5 mpk i.g. qd/28 d", "value": 170.2, "unit": "mm^3"},
      {"measurement": "Mean tumor volume D28", "setting": "[2]; 5 mpk i.g. qd/28 d", "value": 305.0, "unit": "mm^3"},
      {"measurement": "TGI (%) D28", "setting": "[2]; 5 mpk i.g. qd/28 d", "value": 72, "unit": "%"},
      {"measurement": "Number of remaining animals/group", "setting": "[2]; 15 mpk i.g. qd/28 d", "value": "8/8"},
      {"measurement": "Mean tumor volume D0", "setting": "[2]; 15 mpk i.g. qd/28 d", "value": 168.2, "unit": "mm^3"},
      {"measurement": "Mean tumor volume D28", "setting": "[2]; 15 mpk i.g. qd/28 d", "value": 219.7, "unit": "mm^3"},
      {"measurement": "TGI (%) D28", "setting": "[2]; 15 mpk i.g. qd/28 d", "value": 89, "unit": "%"},
      {"measurement": "Number of remaining animals/group", "setting": "[2]; 45 mpk i.g. qd/28 d", "value": "8/8"},
      {"measurement": "Mean tumor volume D0", "setting": "[2]; 45 mpk i.g. qd/28 d", "value": 168.6, "unit": "mm^3"},
      {"measurement": "Mean tumor volume D28", "setting": "[2]; 45 mpk i.g. qd/28 d", "value": 192.0, "unit": "mm^3"},
      {"measurement": "TGI (%) D28", "setting": "[2]; 45 mpk i.g. qd/28 d", "value": 95, "unit": "%"}
    ]},
    {"smiles": "CC(C)C[C@H]1CCc2cc(O)ccc2[C@H]1c1ccc(N2CCC(CN3CCN(c4ccc5c(c4)CN([C@H]4CCC(=O)NC4=O)C5=O)CC3)CC2)cc1", "note": "[hydrochloride crystal form I, (S)-3-(5-(4-((1-(4-((1R,2R)-6-hydroxy-2-isobutyl-1,2,3,4-tetrahydronaphthalen-1-yl)phenyl)piperidin-4-yl)methyl)piperazin-1-yl)-1-oxoisoindolin-2-yl)piperidine-2,6-dione]", "values": [
      {"measurement": "hygroscopic weight gain", "setting": "[3]; accelerated experimental conditions, 70% RH", "value": "about 7.3%"},
      {"measurement": "hygroscopic weight gain", "setting": "[3]; extreme conditions, 90% RH", "value": "about 8.9%"},
      {"measurement": "hygroscopic weight gain", "setting": "[3]; normal storage conditions, 25° C. and 60% RH", "value": "about 6.3%"},
      {"measurement": "crystal form after the DVS tests", "setting": "[3]; sample re-identified after DVS", "value": "its crystal form did not change"},
      {"measurement": "Purity %", "setting": "[4]; 40° C., 7 days, open vessel", "value": 98.6, "unit": "%"},
      {"measurement": "Purity %", "setting": "[4]; 40° C., 14 days, open vessel", "value": 98.4, "unit": "%"},
      {"measurement": "Purity %", "setting": "[4]; 40° C., 30 days, open vessel", "value": 97.9, "unit": "%"},
      {"measurement": "Purity %", "setting": "[4]; 60° C., 7 days, open vessel", "value": 98.2, "unit": "%"},
      {"measurement": "Purity %", "setting": "[4]; 60° C., 14 days, open vessel", "value": 97.6, "unit": "%"},
      {"measurement": "Purity %", "setting": "[4]; 60° C., 30 days, open vessel", "value": 96.8, "unit": "%"},
      {"measurement": "Purity %", "setting": "[4]; 75% RH, 7 days, open vessel", "value": 99.0, "unit": "%"},
      {"measurement": "Purity %", "setting": "[4]; 75% RH, 14 days, open vessel", "value": 98.9, "unit": "%"},
      {"measurement": "Purity %", "setting": "[4]; 75% RH, 30 days, open vessel", "value": 99.0, "unit": "%"},
      {"measurement": "Purity %", "setting": "[4]; 93% RH, 7 days, open vessel", "value": 99.0, "unit": "%"},
      {"measurement": "Purity %", "setting": "[4]; 93% RH, 14 days, open vessel", "value": 98.9, "unit": "%"},
      {"measurement": "Purity %", "setting": "[4]; 93% RH, 30 days, open vessel", "value": 98.7, "unit": "%"},
      {"measurement": "Purity %", "setting": "[4]; 4500 Lux, 7 days, open vessel", "value": 98.6, "unit": "%"},
      {"measurement": "Purity %", "setting": "[4]; 4500 Lux, 14 days, open vessel", "value": 98.1, "unit": "%"},
      {"measurement": "Purity %", "setting": "[4]; 4500 Lux, 30 days, open vessel", "value": 97.8, "unit": "%"},
      {"measurement": "Purity %", "setting": "[4]; Initial, 0 days", "value": 99.0, "unit": "%"},
      {"measurement": "physical and chemical stabilities (conclusion)", "setting": "[4]; standing 1 month under conditions other than the high temperature and light exposure conditions", "value": "good physical and chemical stabilities"},
      {"measurement": "Purity %", "setting": "[5]; 25° C./60% RH, 7 days", "value": 99.0, "unit": "%"},
      {"measurement": "Purity %", "setting": "[5]; 25° C./60% RH, 14 days", "value": 99.0, "unit": "%"},
      {"measurement": "Purity %", "setting": "[5]; 25° C./60% RH, 30 days", "value": 99.0, "unit": "%"},
      {"measurement": "Purity %", "setting": "[5]; 25° C./60% RH, 60 days", "value": 99.0, "unit": "%"},
      {"measurement": "Purity %", "setting": "[5]; 40° C./75% RH, 7 days", "value": 99.0, "unit": "%"},
      {"measurement": "Purity %", "setting": "[5]; 40° C./75% RH, 14 days", "value": 99.0, "unit": "%"},
      {"measurement": "Purity %", "setting": "[5]; 40° C./75% RH, 30 days", "value": 99.0, "unit": "%"},
      {"measurement": "Purity %", "setting": "[5]; 40° C./75% RH, 60 days", "value": 98.9, "unit": "%"},
      {"measurement": "Purity %", "setting": "[5]; Initial, 0 days", "value": 99.0, "unit": "%"},
      {"measurement": "physical and chemical stabilities (conclusion)", "setting": "[5]; standing under long-term accelerated conditions for 2 months", "value": "good physical and chemical stabilities"}
    ]}
  ]
}
